Experimental data published in PMC11357992, “Non-invasive mapping of systemic neutrophil dynamics upon cardiovascular injury” (Nature Cardiovascular Research, 2023).
Where “and” joins values, the source holds several entries; their conditions need not be identical. Identical values can stand only once. Where no end group is shown, it is not given here. carboxyfluorescein = N-terminal fluorescence label (CF)

Experiments:
[1] = Cryo-transmission electron microscopy of PFCs (diameter, liposomes); format: physicochemical; set-up: key: % of PFCs per 25 nm diameter class in cryo-TEM images; conditions: cryo-TEM size distribution; panel C raw data, single replicates #1-#3
Method: PFCs were diluted with sample buffer to minimize particle aggregation and therefore enable proper size measurements, which were carried out as previously described.
(§1) Extended Data Fig. 8 Physicochemical properties and cellular uptake of ^hNPPFCs. a, Cellular uptake of ^hNPPFCs by human monocyte subsets and neutrophils: Human immune cells isolated from the blood of healthy volunteers were incubated with ^hNPPFCs. Subsequently, cells were stained with CD11b, CD14 and CD16 to differentiate between neutrophils (red), classical monocytes (gray) and non-classical monocytes (blue) and the cells were analyzed by flow cytometry. The cellular uptake of ^hNPPFCs was determined under unstimulated conditions (top) and after treatment with 1 µg/ml LPS (bottom). b, Physicochemical properties of the generated nanotracers: Characterization of size, size distribution and ζ potential of ^MalPFCs and targeting PFCs (^hNPPFCs, ^ConPFCs) by dynamic light scattering (DLS). The rhodamine fluorescence signal of the PCS was determined by IVIS imaging and the ^19F content by ^19F MRI. c-e, Cryo transmission electron microscopy of the generated nanotracers: c, Cryo transmission electron microscopy (cryo-TEM) of ^hNPPFCs and ^ConPFCs. Graphs: The diameter of the PFCs was determined manually from three images categorized into 25 nm groups. […] Data are derived from three images for ^hNPPFCs and ^ConPFCs each. d, Box plot (box and whiskers; min to max) of the diameter of ^ConPFCs/^hNPPFCs calculated from cryo-TEM images. e, Relative amount of liposomes (%) in individual cryo-TEM images. The number of PFCs and liposomes was manually determined (n = 4/5 images). Red arrows in the cryo-TEM images indicate liposomes. Data are mean values ± SD of n = 5-6 (a), n = 3-6 (b), n = 3 (c), n = 3 (d) and n = 6 (e) independent experiments; *** = p < 0.001, verified by one-way ANOVA (a). Source data

[2] = test system: human lymphocytes, monocytes or neutrophils; test: Uptake of hNPPFCs/ConPFCs by human blood immune cells, flow cytometry; format: cell-based; conditions: for uptake by lymphocytes, raw data (flow cytometry): human lymphocytes; for uptake by lymphocytes, raw data (flow cytometry) / uptake by monocytes, raw data (flow cytometry): single samples #1-#4; for uptake by monocytes, raw data (flow cytometry): human monocytes
Method: Blood was collected from the vena brachialis, and erythrocytes were lysed as described above. After 10 min of incubation, samples were centrifuged at 350g for 10 min at 20 °C. For isolation of a purified neutrophil fraction, density gradient centrifugation was performed. Five milliliters of Ficoll 1.077 (Sigma-Aldrich) was layered on 5 ml Ficoll 1.119 (Sigma-Aldrich), and 20 ml of whole blood diluted 1:2 with PBS was carefully layered on the Ficoll 1.077. Samples were centrifuged at 350g for 20 min with low acceleration and brake. The neutrophil layer was isolated by careful aspiration and washed with PBS. Isolated cells were resuspended in MACS buffer.
Human immune cells were discriminated by staining for CD45 (BioLegend, clone HI30), CD11b (BD Biosciences, clone ICRF44), CD14 (BioLegend, clone M5E2) and CD16 (BD Biosciences, clone 3G8) (lymphocytes, CD45^+CD11b^−CD16^−; classical monocytes, CD45^+CD11b^+CD14^++CD16^−; non-classical monocytes, CD45^+CD11b^+CD14^+CD16^++; neutrophils, CD45^+CD11b^+CD16^+). Murine immune cells were discriminated by staining for CD45 (BD Biosciences, clone 30-F11), CD11b (BioLegend, clone M1/70), Ly6G (BD Biosciences, clone 1A8), Ly6C (BioLegend, clone HK1.4) and F4/80 (BioLegend, clone BM8) (lymphocytes, CD45^+CD11b^−Ly6G^−; classical monocytes, CD45^+CD11b^+Ly6G^−Ly6C^hi; non-classical monocytes, CD45^+CD11b^+Ly6G^−Ly6C^lo; neutrophils, CD45^+CD11b^+Ly6G^+; eosinophils, CD45^+CD11b^+Ly6G^+SSC^hiFSC^lo). Both human and murine cells were stained for 20 min at 4 °C, followed by washing with 200 µl MACS buffer.
If not mentioned otherwise, neutrophil-specific peptide or Con (both at 1 µg ml^−1) were incubated for 20 min at 4 °C, while ^NPPFCs or ^ConPFCs were incubated at a concentration of 10 µl ml^−1 for the indicated period of time, followed by two washing steps with 200 µl MACS buffer.
A total of 1 × 10^6 cells were incubated with 10 µl of the emulsion over a period of 80 min at 37 °C. At distinct time points, 50 µl of the samples were transferred into 2 ml of ice-cold MACS buffer and analyzed for rhodamine fluorescence by flow cytometry.
as §1

Q: Which “share of particles in size class 0-25” value [1] does the source give for “hNPPFCs: PEGylated rhodamine-labeled perfluorocarbon nanoemulsion coupled with human neutrophil-specific peptide hNP (carboxyfluorescein-DLVTSKLQVGGGC; also: C-terminal Cys coupled via maleimide-PEG2000-DSPE to rhodamine-labelled perfluorocarbon nanoemulsion)” here?
A: The value was 0.

Q: And the “share of particles in size class 25-50” value [1]?
A: Its value is 26.2295 and 23.5714 and 28.5714.

Q: What about the “share of particles in size class 50-75” value [1] of the same substance?
A: Its value is 45.9016 and 51.4286 and 42.0635.

Q: What about the “share of particles in size class 75-100” value [1] of the same substance?
A: The value was 21.3115 and 20 and 23.8095.

Q: What about the “share of particles in size class 100-125” value [1] of the same substance?
A: The value was 6.557 and 5 and 5.556.

Q: What about the “share of particles in size class 125-150” value [1] of the same substance?
A: Its value is 0.

Q: And the “share of particles in size class 150-175” value [1]?
A: Its value is 0.

Q: What about the “share of particles in size class 175-200” value [1] of the same substance?
A: The value was 0.

Q: What about the “uptake by neutrophils, Ctrl - hNPPFCs, raw data” value ([2]; Ctrl donors, time 0, single samples #1-#8) of the same substance?
A: Its value is 68.6 and 64 and 91.8 and 102 and 91.2 and 87.9 and 78.2 and 76.6.

Q: What about the “uptake by human monocytes and their subtypes, flow cytometry” value ([2]; also under LPS stimulation (1 µg/ml)) of the same substance?
A: Its value is “only minor uptake”.

Q: What about the “uptake by lymphocytes, raw data (flow cytometry)” value (“uptake by lymphocytes, raw data” below) ([2]; incubation 0 min) of the same substance?
A: Its value is 14.8 and 22.7 and 17.1 and 13.

Q: What about the “uptake by lymphocytes, raw data” value ([2]; incubation 40 min) of the same substance?
A: Its value is 125 and 107 and 139 and 206.

Q: And the “uptake by lymphocytes, raw data” value ([2]; incubation 80 min)?
A: The value was 149 and 177 and 157 and 227.

Q: What about the “uptake by monocytes, raw data (flow cytometry)” value (“uptake by monocytes, raw data” for short) ([2]; incubation 0 min) of the same substance?
A: The value was 41.4 and 45.1 and 42.3 and 29.9.

Q: What about the “uptake by monocytes, raw data” value ([2]; incubation 10 min) of the same substance?
A: Its value is 285 and 252 and 274 and 459.

Q: What about the “uptake by monocytes, raw data” value ([2]; incubation 20 min) of the same substance?
A: The value was 318 and 557 and 425 and 621.

Q: What about the “uptake by monocytes, raw data” value ([2]; incubation 40 min) of the same substance?
A: Its value is 616 and 798 and 629 and 741.

Q: What about the “uptake by monocytes, raw data” value ([2]; incubation 80 min) of the same substance?
A: The value was 938 and 1088 and 771 and 1126.

Q: What about the “uptake by neutrophils, raw data (flow cytometry)” value ([2]; human neutrophils, incubation 0 min, single samples #1-#9) of the same substance?
A: Its value is 76.6 and 91.8 and 102 and 91.2 and 87.9 and 78.2.

Q: What about the “binding to human lymphocytes, flow cytometry” value ([2]; immune cells from human blood) of the same substance?
A: Its value is “no binding to lymphocytes”.

Q: What about the “binding to human neutrophils, flow cytometry” value ([2]; immune cells from human blood) of the same substance?
A: Its value is “avidly bound to neutrophils”.

Q: What about the “human neutrophils labeled by hNPPFCs” value ([2]; of all human neutrophils in the authors' samples (CD177 not present on all)) of the same substance?
A: The value was 50–60%.
